Experimental data published in patent US9758485B2, “Compounds for controlling arthropods” (priority 2013, dated 2017).

Assays:
Type in all cases: in vivo
Rhipicephalus sanguineus = Rhipicephalus sanguineus - in vitro contact tests with adult brown dog ticks; details: application rate 5 μg/cm^2, after 48 h (dead or moribund)
How it was run: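 Test compound was dissolved in acetone p.a. (9 mg in 1 ml, then diluted), and 250 μl were spread evenly over the inner surface of 25 ml test tubes on an orbital shaker at 30 rpm for 2 h. Once the solvent evaporated, 5-10 adult Rhipicephalus sanguineus ticks were sealed in, kept dark at room temperature, and after 48 h placed on a 45-50° C. hotplate to score dead or moribund ticks.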

Amblyomma hebraeum = Amblyomma hebraeum test (tick nymphs, immersion); details: application rate 100 ppm; tick nymphs immersed for one minute; kill after 42 days
How it was run: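 Mortality (%) is read 42 days post-treatment, where 0% means no ticks and 100% all ticks killed. Nymphs were dipped for 1 min into the test dilution (DMSO stock diluted with water) and afterwards stored on filter paper under controlled climate.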

Boophilus microplus = Boophilus microplus - injection test; details: Rhipicephalus microplus, 168 h; application rate 20 μg/animal; injected into engorged adult female ticks; laying of fertile eggs, after 7 days; read-out: efficacy
How it was run: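 Compound dissolved in DMSO (10 mg per 0.5 ml, then diluted with DMSO to test concentration); 1 μl injected into the abdomen of 5 engorged adult female ticks, which are then held in a climate-controlled room. Efficacy judged after 7 days by laying of fertile eggs.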

[1] = test system: Boophilus microplus Parkhurst strain, SP-resistant; assay: Boophilus microplus - dip test; details: application rate 100 ppm; dip of engorged adult female ticks; laying of fertile eggs, after 7 days
How it was run: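 Efficacy reflects suppression of fertile egg laying: 0% means all eggs fertile, 100% none, read at 7 days, doubtful eggs kept ~42 days for larval hatch. Treatment was a complete dip of 8–10 engorged adult female ticks (SP-resistant Parkhurst strain) in a water dilution of a DMSO stock.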

Ctenocephalides felis = Ctenocephalides felis - oral test; details: Ctenocephalides felis, po, 48 h; application rate 100 ppm in citrated cattle blood; adult fleas; kill after 2 days; read-out: efficacy
How it was run: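 Percentage mortality recorded at 2 days, where 0% means no fleas killed. Compound dissolved in DMSO and diluted in citrated cattle blood, which roughly 20 unfed adult C. felis imbibe via a parafilm membrane.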

Lucilia cuprina = Lucilia cuprina test; details: Lucilia cuprina, 48 h; application rate 100 ppm; L1 larvae in minced horsemeat; kill after 2 days; read-out: efficacy
How it was run: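 Mortality (%) of first-instar blowfly larvae, about 20 per vessel, recorded 2 days after exposure to compound-treated minced horsemeat. Compound dissolved in dimethyl sulphoxide, then water-diluted to the desired concentration.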

Musca domestica = Musca domestica test; details: application rate 100 ppm; adult houseflies; kill after 2 days
How it was run: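 Ten adult Musca domestica are exposed to a sugar-soaked sponge carrying the water-diluted DMSO formulation; kill in % is read 2 days later.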

Myzus persicae = Myzus persicae - spray test; details: application rate 100 g/ha; Chinese cabbage leaf discs; after 6 days
Procedure: Myzus persicae—Spray Test
Solvent: 78 parts by weight of acetone and 1.5 parts by weight of dimethylformamide
Emulsifier: alkylaryl polyglycol ether
To produce an appropriate active ingredient formulation, 1 part by weight of active ingredient is dissolved using the specified parts by weight of solvent and made up with water containing an emulsifier concentration of 1000 ppm until the desired concentration is attained. To produce further test concentrations, the preparation is diluted with emulsifier-containing water.
Discs of Chinese cabbage leaves (Brassica pekinensis) infested by all stages of the green peach aphid (Myzus persicae) are sprayed with an active ingredient formulation of the desired concentration.
After 6 days, efficacy in % is determined. 100% means that all the aphids have been killed; 0% means that none of the aphids have been killed.

Phaedon cochleariae = Phaedon cochleariae - spray test; details: Phaedon cochleariae, foliar, 168 h; application rate 100 g/ha; larvae on Chinese cabbage leaf discs; after 7 days; read-out: efficacy

Cc1cc(C(F)(C(F)(F)F)C(F)(F)F)cc(C)c1-n1cc(-c2ccc(Cl)c(C(=O)NC3CC3)c2)cn1 [I-T3-1, 2-chloro-N-cyclopropyl-5-[1-[2,6-dimethyl-4-[1,2,2,2-tetrafluoro-1-(trifluoromethyl)ethyl]phenyl]pyrazol-4-yl]benzamide]
100%: efficacy (Rhipicephalus sanguineus) | efficacy (Amblyomma hebraeum) | pest or weed control at 0.02 mg (Boophilus microplus) | efficacy [1] | pest or weed control at 100 ppm (Ctenocephalides felis) | pest or weed control at 100 ppm (Lucilia cuprina) | efficacy (Musca domestica) | efficacy (Myzus persicae) | pest or weed control at 100 g/ha (Phaedon cochleariae)
